{"source": "PubChem BioAssay AID1259411", "about": "(Chemical Carcinogenesis Research Information System (CCRIS), 2018)", "test_system": "rodent carcinogenicity bioassays, tumor incidence", "assay": "CCRIS carcinogenicity studies", "description": "The CCRIS database contains chemical records with carcinogenicity, mutagenicity, tumor promotion, and tumor inhibition test results. It was developed by the National Cancer Institute (NCI). Data are derived from studies cited in primary journals, current awareness tools, NCI reports, and other sources. Test results have been reviewed by experts in carcinogenesis and mutagenesis.\nCCRIS provides historical information from the years 1985 - 2011. It is no longer updated.\nThis is an archive assay for CCRIS carcinogenicity studies.", "note": "The source made the active and inactive calls. No rule for the calls is given here.", "data": [{"smiles": "O=C(O)c1ccc([N+](=O)[O-])cc1", "values": [{"measurement": "carcinogen call", "setting": "Species: MOUSE, Strain/Sex: B6C3F1/FEMALE, Route: ORAL, Dose: 0, 1250, 2500, 5000 PPM IN DIET FOR 103 WK (STUDY DURATION: 104 WK), Dose: 0, 1250, 2500, 5000 PPM IN DIET FOR 103 WK (STUDY DURATION: 104 WK)", "result": "inactive; negative"}, {"measurement": "carcinogen call", "setting": "Species: MOUSE, Strain/Sex: B6C3F1/MALE, Route: ORAL, Dose: 0, 1250, 2500, 5000 PPM IN DIET FOR 103 WK (STUDY DURATION: 104 WK), Dose: 0, 1250, 2500, 5000 PPM IN DIET FOR 103 WK (STUDY DURATION: 104 WK)", "result": "inactive; negative"}, {"measurement": "carcinogen call", "setting": "Species: RAT, Strain/Sex: F344/FEMALE, Route: ORAL, Dose: 0, 1250, 2500, 5000 PPM IN DIET FOR 103 WK (STUDY DURATION: 104 WK), Dose: 0, 1250, 2500, 5000 PPM IN DIET FOR 103 WK (STUDY DURATION: 104 WK), Tumor Site: Type of Lesion: CLITORAL GLAND: ADENOMA, ADENOMA OR CARCINOMA", "result": "active; positive"}, {"measurement": "carcinogen call", "setting": "Species: RAT, Strain/Sex: F344/MALE, Route: ORAL, Dose: 0, 1250, 2500, 5000 PPM IN DIET FOR 103 WK (STUDY DURATION: 104 WK), Dose: 0, 1250, 2500, 5000 PPM IN DIET FOR 103 WK (STUDY DURATION: 104 WK)", "result": "inactive; negative"}]}, {"smiles": "Cl[C@@H]1C2(Cl)C3C4[C@@H]5O[C@@H]5[C@H]5C3[C@@](Cl)(C2(Cl)Cl)[C@]1(Cl)[C@@H]45", "note": "(stereo partly specified)", "values": [{"measurement": "carcinogen call", "setting": "Species: MOUSE, Strain/Sex: B6C3F1/FEMALE, Route: ORAL, Dose: 0, 0.32, 0.64 PPM IN DIET, Dose: 0, 0.32, 0.64 PPM IN DIET", "result": "inactive; negative"}, {"measurement": "carcinogen call", "setting": "Species: MOUSE, Strain/Sex: B6C3F1/MALE, Route: ORAL, Dose: 0, 0.32, 0.64 PPM IN DIET, Dose: 0, 0.32, 0.64 PPM IN DIET", "result": "inactive; negative"}, {"measurement": "carcinogen call", "setting": "Species: RAT, Strain/Sex: OSBORNE-MENDEL/FEMALE, Route: ORAL, Dose: 0, 3.4, 7.5 PPM IN DIET, TWA, Dose: 0, 3.4, 7.5 PPM IN DIET, TWA", "result": "inactive; negative"}, {"measurement": "carcinogen call", "setting": "Species: RAT, Strain/Sex: OSBORNE-MENDEL/MALE, Route: ORAL, Dose: 0, 5, 10 PPM IN DIET, Dose: 0, 5, 10 PPM IN DIET", "result": "inactive; negative"}]}, {"smiles": "CCCC(OC(C)=O)N(CCCC(=O)OC)N=O", "note": "(stereo unspecified)", "values": [{"measurement": "carcinogen call", "setting": "Species: RAT, Strain/Sex: F344/MALE,FEMALE, Route: SUBCUTANEOUS, Dose: 38 UMOL/KG IN OLIVE OIL 1/WK FOR 10 WK, Tumor Site: Type of Lesion: INJECTION SITE: MALIGNANT FIBROUS HISTIOCYTOMA", "result": "active; positive"}]}, {"smiles": "CC[C@H]1CCC[C@H](O[C@H]2CC[C@H](N(C)C)[C@@H](C)O2)[C@@H](C)C(=O)C2=C[C@@H]3[C@@H](C=C[C@@H]4C[C@@H](O[C@@H]5O[C@@H](C)[C@H](OC)[C@@H](OC)[C@H]5OC)C[C@@H]34)[C@@H]2CC(=O)O1", "values": [{"measurement": "carcinogen call", "setting": "Species: MOUSE, Strain/Sex: CD-1/FEMALE, Route: ORAL, Dose: 0, 0.0025, 0.008, 0.024, 0.0008% IN DIET FOR 18 MO (STUDY DURATION: 18 MO), Dose: 0, 0.0025, 0.008, 0.024, 0.0008% IN DIET FOR 18 MO (STUDY DURATION: 18 MO)", "result": "inactive; negative"}, {"measurement": "carcinogen call", "setting": "Species: MOUSE, Strain/Sex: CD-1/FEMALE, Route: ORAL, Dose: 0.0025, 0.008, 0.036 % IN DIET FOR 18 MO (STUDY DURATION: 18 MO), Dose: 0.0025, 0.008, 0.036 % IN DIET FOR 18 MO (STUDY DURATION: 18 MO)", "result": "inactive; negative"}, {"measurement": "carcinogen call", "setting": "Species: MOUSE, Strain/Sex: CD-1/MALE, Route: ORAL, Dose: 0, 0.0008, 0.0025, 0.008, 0.024, 0.036% IN DIET FOR 18 MO (STUDY DURATION: 18 MO), Dose: 0, 0.0008, 0.0025, 0.008, 0.024, 0.036% IN DIET FOR 18 MO (STUDY DURATION: 18 MO)", "result": "inactive; negative"}, {"measurement": "carcinogen call", "setting": "Species: MOUSE, Strain/Sex: CD-1/MALE, Route: ORAL, Dose: 0.0025, 0.008, 0.036 % IN DIET FOR 18 MO (STUDY DURATION: 18 MO), Dose: 0.0025, 0.008, 0.036 % IN DIET FOR 18 MO (STUDY DURATION: 18 MO)", "result": "inactive; negative"}, {"measurement": "carcinogen call", "setting": "Species: RAT, Strain/Sex: F344/FEMALE, Route: ORAL, Dose: 0.005, 0.02, 0.05, 0.1% IN DIET FOR 24 MO (STUDY DURATION: 24 MO), Dose: 0.005, 0.02, 0.05, 0.1% IN DIET FOR 24 MO (STUDY DURATION: 24 MO)", "result": "inactive; negative"}, {"measurement": "carcinogen call", "setting": "Species: RAT, Strain/Sex: F344/MALE, Route: ORAL, Dose: 0.005, 0.02, 0.05, 0.1 % IN DIET FOR 24 MO (STUDY DURATION: 24 MO), Dose: 0.005, 0.02, 0.05, 0.1 % IN DIET FOR 24 MO (STUDY DURATION: 24 MO)", "result": "inactive; negative"}]}, {"smiles": "N#[N+]c1ccccc1", "values": [{"measurement": "carcinogen call", "setting": "Species: MOUSE, Strain/Sex: SWISS/FEMALE, Route: GAVAGE, Dose: 0, 100 MG/KG BW 1X/WK FOR 52 WK (STUDY DURATION: 140 WK), Tumor Site: Type of Lesion: LUNG: TUMOR", "result": "active; positive"}, {"measurement": "carcinogen call", "setting": "Species: MOUSE, Strain/Sex: SWISS/FEMALE, Route: SUBCUTANEOUS, Dose: 0, 10 UG/G BW IN 0.01 ML OF 0.9% SALINE 1/WK FOR 26 WK (STUDY DURATION: 140WK), Tumor Site: Type of Lesion: SUBCUTANEOUS TISSUE: TUMOR", "result": "active; positive"}, {"measurement": "carcinogen call", "setting": "Species: MOUSE, Strain/Sex: SWISS/FEMALE, Route: SUBCUTANEOUS, Dose: 0, 25 MG/KG BW 1X/WK FOR 10 WK (STUDY DURATION: 130 WK)", "result": "inactive; negative"}, {"measurement": "carcinogen call", "setting": "Species: MOUSE, Strain/Sex: SWISS/MALE, Route: GAVAGE, Dose: 0, 100 MG/KG BW 1X/WK FOR 52 WK (STUDY DURATION: 130 WK), Tumor Site: Type of Lesion: LUNG: TUMOR", "result": "active; positive"}, {"measurement": "carcinogen call", "setting": "Species: MOUSE, Strain/Sex: SWISS/MALE, Route: SUBCUTANEOUS, Dose: 0, 10 UG/G BW IN 0.01 ML OF 0.9% SALINE 1/WK FOR 26 WK (STUDY DURATION: 140 WK), Tumor Site: Type of Lesion: SUBCUTANEOUS TISSUE: TUMOR", "result": "active; positive"}, {"measurement": "carcinogen call", "setting": "Species: MOUSE, Strain/Sex: SWISS/MALE, Route: SUBCUTANEOUS, Dose: 0, 25 MG/KG BW 1X/WK FOR 10 WK (STUDY DURATION: 120 WK)", "result": "inactive; negative"}]}, {"smiles": "Nc1ccc(N=Nc2ccccc2)cc1", "values": [{"measurement": "carcinogen call", "setting": "Species: MOUSE, Strain/Sex: B6C3F1/FEMALE, Route: INTRAPERITONEAL, Dose: 0, 0.3 UMOL/G IN TRIOCTANOIN ONCE ON DAY 1 FOLLOWED BY 0.4 UMOL/G ONCE ON DAY 8, 15 AND 22 (STUDY DURATION: UP TO 10 MO)", "result": "inactive; negative"}, {"measurement": "carcinogen call", "setting": "Species: MOUSE, Strain/Sex: B6C3F1/MALE, Route: INTRAPERITONEAL, Dose: 0, 0.017, 0.05, 0.15, 0.45 UMOL/G ONCE IN TRIOCTANOIN (STUDY DURATION: 10 MO), Dose: 0, 0.017, 0.05, 0.15, 0.45 UMOL/G ONCE IN TRIOCTANOIN (STUDY DURATION: 10 MO), Tumor Site: Type of Lesion: LIVER: HEPATOMA", "result": "active; positive"}, {"measurement": "carcinogen call", "setting": "Species: MOUSE, Strain/Sex: B6C3F1/MALE, Route: INTRAPERITONEAL, Dose: 0, 0.3 UMOL/G IN TRIOCTANOIN ONCE ON DAY 1 FOLLOWED BY 0.4 UMOL/G ONCE ON DAY 8, 15 AND 22 (STUDY DURATION: UP TO 10 MO), Tumor Site: Type of Lesion: LIVER: HEPATOMA", "result": "active; positive"}, {"measurement": "carcinogen call", "setting": "Species: MOUSE, Strain/Sex: C3H/MALE, Route: INTRAPERITONEAL, Dose: 0, 0.45 UMOL/G ONCE IN TRIOCTANOIN (STUDY DURATION: 11 MO), Tumor Site: Type of Lesion: LIVER: HEPATOMA", "result": "active; positive"}, {"measurement": "carcinogen call", "setting": "Species: MOUSE, Strain/Sex: C57BL/MALE, Route: INTRAPERITONEAL, Dose: 0, 0.45 UMOL ONCE IN TRIOCTANOIN (STUDY DURATION: 11 MO), Tumor Site: Type of Lesion: LIVER: HEPATOMA", "result": "active; positive"}, {"measurement": "carcinogen call", "setting": "Species: RAT, Route: DERMAL, Tumor Site: Type of Lesion: INTEGUMENTARY SYSTEM (SKIN)", "result": "active; positive"}, {"measurement": "carcinogen call", "setting": "Species: RAT, Route: ORAL, Tumor Site: Type of Lesion: LIVER", "result": "active; positive"}, {"measurement": "carcinogen call", "setting": "Species: RAT, Strain/Sex: F344/MALE, Route: INTRAPERITONEAL, Dose: 0, 0.3 UMOL/G IN TRIOCTANOIN ONCE ON DAY 1 FOLLOWED BY 0.4 UMOL/G ONCE ON D 8, 15 AND 22 (STUDY DURATION: 24 MO)", "result": "inactive; negative"}]}, {"smiles": "O=S(=O)(O)c1c(N=Nc2c(O)ccc3ccccc23)ccc2ccccc12", "values": [{"measurement": "carcinogen call", "setting": "Species: MOUSE, Strain/Sex: ICR/FEMALE, Route: DERMAL, Dose: 0, 1 MG IN 0.1 ML DISTILLED WATER 2/WK FOR A MEAN TOTAL DOSE OF 128.1 MG (STUDY DURATION: 18 MO)", "result": "inactive; negative"}, {"measurement": "carcinogen call", "setting": "Species: MOUSE, Strain/Sex: ICR/MALE, Route: DERMAL, Dose: 0, 1 MG IN 0.1 ML DISTILLED WATER 2/WK FOR A MEAN TOTAL DOSE OF 128.1 MG (STUDY DURATION: 18 MO)", "result": "inactive; negative"}]}]}
